Columns and labels:
[1] = system: Rats with calcium chloride induced arrhythmias; assay: Calcium chloride induced arrhythmias in narcotised rats (prophylactic i.v. administration); type: in vivo; settings: control 10.9 min.
Text: By means of the intravenous infusion of a calcium chloride solution, […] induced in narcotised rats which, after termination of the infusion, continue for a certain period of time (modification of the method described by Malinow et al., Arch. Int. Pharmacodyn, 102, 266/1955). This arrhythmic phase is shortened by the prophylactic administration of antiarrhythmic drugs. […] The results of the experiments with calcium chloride induced arrhythmias on rats are summarized in the following Table I. The average period of arrhythmia is calculated from experiments with at least 10 animals.

rabbit eye = assay: Local anesthetic action on the rabbit eye (corneal reflex); type: in vivo, rabbits; settings: for Period of Action: observation discontinued after 60 minutes
Description: The corneal reflex is induced in rabbits using a horse hair which bends with a pressure of about 250 mg (modification of the method described by M. von Frey, Beitrage zur Physiologie des Schmerzsinns, Vehr. d. Kgl. Sachs, Ges. d. Wiss. zu Leipzig, Math.-phys. Kl., 46, 185/1894; Untersuchungen uber die Sinnesfunktionen der menschlichen Haut, Leipzig, 1896). After instillation of local anesthetics into the conjunctival sac of the eye, the number of impacts with the horse hair which result in closure of the eyelid is increased. At intervals of 4 minutes, in each case a maximum of 100 successive impacts are carried out and such an action is taken as being 100%. The period of investigation is at most 60 minutes. The action of the compounds according to the present invention is compared with that of tetracaine and procainamide.
The following Table VII contains the results of the experiments on the rabbit eye. There are also given, in addition to the concentrations of the test solutions which were instilled into the conjunctival sac, the actions of the compounds in % (see description of the method), as well as their period of action. In each case, the observations were discontinued after 60 minutes.

in vivo = settings: mouse, po
Description: The compounds according to the present invention are administered intragastrally to male mice (NMRI) with a body weight of from 20 to 25 g. Each dosage group consists of 4 animals. The LD50 values are determined after having observed the animals for 7 days.

[2] = system: dogs with coronary ligature; assay: Coronary ligature on dogs (period of sinus rhythm from ECG); type: in vivo
Text: Using narcotised dogs, after thoracotomy, a coronary artery (side branch of the R. interventr. post. or of the R. circumflexus) is ligatured (see. A. S. Harris, Circulation, 1, 1318/1950). The heart rhythm disturbances which occur as a result thereof are, on the day following the operation, recorded on the awake animals and treated with the compounds according to the present invention by intragastral and intravenous administration. Procainamide is used as a positive standard. From the ECG, the time is determined in which, after administration of the test compound, a sinus rhythm can be recognized.
The compounds of Examples 1 (Table III), 4 (Table IV) and 10 (Table V) were tested on dogs with a coronary ligature. All the compounds were, in each case, tested on at least 5 animals.

[3] = system: guinea pig left ventricle; assay: Refractory time of electrically stimulated guinea pig left ventricles (organ bath)
Description: The left ventricles of guinea pig hearts are electrically stimulated in an organ bath, the amplitude of contraction being recorded. By means of a second stimulus, the time is determined below which the heart muscle no longer reacts with a separately resolvable contraction. This time is defined as the refractory time.
The following Table II contains information concerning the maximum tested compound concentrations, as well as the average prolongation of the refractory time measured at this concentration in comparison with the initial value of, in each case, at least 6 experiments.

[4] = Oryctolagus cuniculus, topical, concentration 0.5 %

COc1ccc2c(c1)-c1c(ccc(OC)c1O)CC(Cc1ccccc1)N(C)CC2 (single isomer, unassigned; (-)) [Example 1, (-)-6-Benzyl-2,12-dimethoxy-1-hydroxy-7-methyl-5,6;8,9-tetrahydro-7H-dibenz(d,f)azonine]
average period of arrhythmia ([1]; 2.5 mg/kg I.V.): 4.0 min | inhibition in vivo at 0.1 % (rabbit eye; Oryctolagus cuniculus, topical, concentration 0.1 %): 89% | inhibition in vivo at 0.5 % (rabbit eye; [4]): 100% | Period of Action (rabbit eye; concentration 0.1 %): about 49 Min. | Period of Action (rabbit eye; concentration 0.5 %): > 60 min | LD50 at 168 h (in vivo): 680 mg/kg | average period of eurhythmia ([2]; 4 mg/kg i.v.): 62 min | average period of eurhythmia ([2]; 10 mg/kg i.g.): 49 min | average period of eurhythmia ([2]; 15 mg/kg i.g.): 99 min | average period of eurhythmia ([2]; 20 mg/kg i.g.): 105 min | average period of eurhythmia ([2]; 25 mg/kg i.g.): 198 min | average prolongation of the refractory time ([3]; 8.0 × 10^-6 g/ml in the bath): 43 ms

CCN(CC)CCNC(=O)c1ccc(N)cc1 [procainamide, reference compound]
average period of arrhythmia ([1]; 10 mg/kg I.V.): 7.3 min | inhibition in vivo at 0.5 % (rabbit eye; [4]): 1% | inhibition in vivo at 2 % (rabbit eye; Oryctolagus cuniculus, topical, concentration 2.0 %): 1% | Period of Action (rabbit eye; concentration 0.5 %): 0 min | Period of Action (rabbit eye; concentration 2.0 %): 0 min | local anesthetic activity (in words) (rabbit eye; versus procainamide and tetracaine): inactive | LD50 at 168 h (in vivo): 1200 mg/kg | average period of eurhythmia ([2]; 10 mg/kg i.v.): 19 min | average prolongation of the refractory time ([3]; 6.4 × 10^-5 g/ml in the bath): 7 ms
